Test results published in article PMC4052318, “Cyclodepsipeptides and Other O-Containing Heterocyclic Metabolites from Beauveria felina EN-135, a Marine-Derived Entomopathogenic Fungus” (Marine Drugs, 2014).
In brackets after ≈: the same amount, converted by molar mass. Numbered stars: 1 amine (or outer) side, 2 acyl side, 3 side chain; on linkers, the order of the positions; unused ones are H or OH. Square brackets hold non-standard residues; d marks the D form. Peptide text beside a SMILES is read from it. X1 = O=C([C@@H](C[C@H](O)CCl)O[*:1])[*:2]; dLac(3-vinyl) = C=CC[C@@H](O)C(=O)O; NMeV = CN[C@H](C(=O)O)C(C)C; NMeA = CN[C@@H](C)C(=O)O; βAla = NCCC(=O)O

Experiments:
[1] = system: brine shrimp (Artemia salina); assay: Brine-shrimp lethality; format: in vivo; conditions: for LD50, lethality against brine shrimp: colchicine as positive control; for lethal rate against brine shrimp: at a concentration of 100 μg/mL
Protocol: The brine-shrimp (Artemia salina) lethality of the isolated compounds was determined as previously described. Colchicine was used as a positive control.

P. aeruginosa = assay: Antimicrobial assay (disk diffusion and double dilution methods); format: cell-based; conditions: Pseudomonas aeruginosa; chloramphenicol as positive control; read-out: MIC against P. aeruginosa
Description: The antibacterial activities against E. coli, S. aureus, P. aeruginosa, V. alginolyticus, V. anguillarum, and E. tarda along with the antifungal activities against P. piricola, A. brassicae, C. gloeosporioides, and C. fusarium were investigated using the disk diffusion and double dilution methods as previously described. Chloramphenicol and amphotericin B were used as positive controls for the antibacterial and antifungal bioassays, respectively.

Row | Compound | LD50, lethality against brine shrimp [1] [μΜ] | also measured
1 | CC[C@H](C)[C@@H]1CC(=O)NCC(=O)N[C@@H](C(C)C)C(=O)N[C@H](CC(C)C)C(=O)N[C@@H](C)C(=O)N[C@@H](C)C(=O)O1 [Compound 1, iso-isariin D] | 26.58 | –
2 | C[C@@H]1CC2=C(CO1)C(=O)[C@@](C)(O)[C@H](O)C2 [Compound 2, felinone A] | – | lethal rate against brine shrimp [1]: 61.4%
3 | C=CC[C@H]1OC(=O)CCNC(=O)[C@H](C)N(C)C(=O)[C@H](C(C)C)N(C)C(=O)[C@H]([C@@H](C)CC)NC(=O)[C@@H]2CCCN2C1=O [Compound 4, destruxin A] (cyclo([dLac(3-vinyl)]PI[NMeV][NMeA][βAla])) | 5.34 | –
4 | CC[C@H](C)[C@@H]1NC(=O)[C@@H]2CCCN2C(=O)[C@@H](C[C@H](O)CCl)OC(=O)CCNC(=O)[C@H](C)N(C)C(=O)[C@H](C(C)C)N(C)C1=O [Compound 6, destruxin E chlorohydrin] (cyclo([X1]PI[NMeV][NMeA][βAla])) | 2.16 | –
5 | O=C(N[C@H](CO)[C@H](O)c1ccc([N+](=O)[O-])cc1)C(Cl)Cl [chloramphenicol] | – | MIC (P. aeruginosa): 4 µg/mL (≈ 12.4 µM)
6 | COc1cc2c(c(OC)c1OC)-c1ccc(OC)c(=O)cc1[C@@H](NC(C)=O)CC2 [colchicine, reference compound] | 88.4 | –
7 | felinone B [Compound 3] | – | lethal rate against brine shrimp [1]: 59.6%
